Two compounds from article PMC12595434, “Development of retinoid nuclear receptor pathway antagonists through targeting aldehyde dehydrogenase 1A3” (iScience, 2025) can be followed below.

Converted amounts (≈) assume the structure as drawn. Read-outs that look alike come from different tables or passages of the source. A value given as a limit tells only on which side of the number the result lay.

Series [1] has as its target T1, human ALDH1A1 (Homo sapiens, UniProt P00352).
T1 construct: made in house; host or cells: BL21-DE3 E. coli
T1 sequence (P00352 1-501): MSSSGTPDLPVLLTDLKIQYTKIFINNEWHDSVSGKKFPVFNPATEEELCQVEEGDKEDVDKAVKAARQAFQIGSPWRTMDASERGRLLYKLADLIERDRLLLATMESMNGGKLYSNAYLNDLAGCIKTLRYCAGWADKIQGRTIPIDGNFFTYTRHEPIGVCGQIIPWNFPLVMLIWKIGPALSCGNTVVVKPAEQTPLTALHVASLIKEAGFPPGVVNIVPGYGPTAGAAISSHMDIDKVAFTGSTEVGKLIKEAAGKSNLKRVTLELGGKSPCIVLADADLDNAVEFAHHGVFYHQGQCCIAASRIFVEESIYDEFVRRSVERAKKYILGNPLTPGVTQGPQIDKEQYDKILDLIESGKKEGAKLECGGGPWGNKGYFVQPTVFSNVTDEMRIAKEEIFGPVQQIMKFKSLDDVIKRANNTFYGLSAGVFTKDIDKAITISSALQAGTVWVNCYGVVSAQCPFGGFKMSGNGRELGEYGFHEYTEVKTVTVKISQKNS
Kind of series: Recombinant enzyme activity assay. In kind it is biochemical. The settings on record: dose titration, up to 10 μM.
Method: Purified enzyme was used for biochemical and biophysical assays.
(§1) For the recombinant enzyme activity assay, enzyme aliquots were thawed on ice for 4 h prior to analysis and the protocol was performed as described[8] with the following key changes: 1) Final concentrations of NAD+ (Gold Bio) were 200 μM and BSA were 1 mg/mL 2) Propanaldehyde was used as the substrate for ALDH1A1 and ALDH2. 3) Reaction velocity was monitored through diaphorase (clostridium) coupled reduction of resazurin (100 μM) monitored with ex/em of 560nm/590 nm in order to regenerate NAD+ and thus maintain constant cofactor concentration as well as to avoid high absorbance values of many screening compounds at the NADH absorbance. Assays were conducted at room temperature (controlled to 21-23C) and all buffers were maintained at pH 7.5. For all reactions, pre-incubation time was approximately 2 min while the reaction monitoring was performed over 10 min.

Series [2] concerns the target CYP3A4 (Homo sapiens, UniProt P08684). Kind of series: CYP inhibition. In kind it is in vitro ADME.
The nature of series [3]: Cytotoxicity, 48 h tetrazolium proliferation assay.
Series [4] has as its target hERG (Homo sapiens, UniProt Q12809). Nature of the series: hERG dofetilide binding assay. Background: hERG is a cardiac potassium channel; its block is linked to QT prolongation.
Series [5] in a line: Kinetic solubility. In kind it is physicochemical. To be noted: kinetic from dmso stock. The source says:
Table 1 Physiochemical, biochemical, and metabolic profile of lead compounds MBE1 and MBE1.5 | column: MBE1; MBE1.5

Series [6] is described as follows: IV/PO pharmacokinetics in fasted male CD-1 mice.
The target of series [7] is CYP2D6 (Homo sapiens, UniProt P10635). Nature of the series: CYP inhibition. In kind it is in vitro ADME.
For series [8], the system named is MDCK-MDR2. Nature of the series: MDCK-MDR2 bidirectional permeability assay. In kind it is in vitro ADME. To be noted: A to B.
In series [9] the test system is MDR2. Nature of the series: MDCK-MDR2 bidirectional permeability assay. In kind it is in vitro ADME. The settings on record: dog; efflux ratio; read-out: MDCK-MDR2 (B to A/A to B).
For series [10], the system named is endogenous ALDH1A3 in MDA-MB-468 cells. Nature of the series: Quantification of atRA in cells. In kind it is cell-based, human. To be noted: 24 h, dose titration.
Series [11] has as its target T2, ALDH1A3 (Homo sapiens, UniProt P47895).
T2 sequence (P47895 1-512): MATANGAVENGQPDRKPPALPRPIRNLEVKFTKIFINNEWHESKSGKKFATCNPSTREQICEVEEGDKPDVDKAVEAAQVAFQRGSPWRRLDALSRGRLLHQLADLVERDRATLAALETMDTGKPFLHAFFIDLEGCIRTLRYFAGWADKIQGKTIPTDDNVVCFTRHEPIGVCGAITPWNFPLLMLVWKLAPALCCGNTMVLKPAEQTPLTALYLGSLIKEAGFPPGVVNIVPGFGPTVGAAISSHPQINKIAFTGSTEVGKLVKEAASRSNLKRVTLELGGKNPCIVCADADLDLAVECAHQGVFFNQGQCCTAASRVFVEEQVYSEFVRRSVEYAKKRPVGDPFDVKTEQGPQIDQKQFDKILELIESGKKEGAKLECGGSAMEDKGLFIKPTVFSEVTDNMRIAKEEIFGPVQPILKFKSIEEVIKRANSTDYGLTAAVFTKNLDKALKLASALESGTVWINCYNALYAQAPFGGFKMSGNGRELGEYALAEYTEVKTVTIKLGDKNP
Kind of series: Recombinant enzyme activity assay. In kind it is biochemical. Also on record: made in house; host or cells: BL21-DE3 E. coli.
Method: We then tested each published ALDH inhibitor against the three human ALDH1A enzymes to assess inhibitory activity and isozyme selectivity.
Recombinant protein was isolated by inducing BL21-DE3 E. coli (Thermo Fisher) containing the respective plasmid for 20 h at room temperature, shaking, with 300 μM IPTG (Selleck Chem). […] The target protein was then purified using Ni NTA beads 6FF affinity chromatography. Lysis buffer consisted of 50 mM Na2HPO4, 300 mM NaCl, 1 mM β-ME, pH7.5. The column (2 mL) was washed with 50 mM Na2HPO4, 300 mM NaCl, 1 mM β-ME, 20 mM Imidazole, pH7.5. Elution was performed using 3 mL of 50 mM Na2HPO4, 300 mM NaCl, 1 mM β-ME, 250 mM Imidazole, pH7.5. Following affinity chromatography, the protein underwent further purification via Gel filtration chromatography using a Superdex200 column. […] Purified enzyme was used for biochemical and biophysical assays.
as §1

Series [12] concerns the target CYP1A2 (Homo sapiens, UniProt P05177). Kind of series: CYP inhibition. In kind it is in vitro ADME.
Series [13] deals with human ALDH1A3 in MCF7-ALDH1A3 cells. Nature of the series: STRA6 qPCR retinoid inhibition assay in MCF7-ALDH1A3 cells. The settings on record: for IC50: 24 h, read-out: cellular IC50 for ALDH1A3, STRA6 mRNA; for EC50: read-out: EC50 cellular, human ALDH1A3.
Series [14] is described as follows: Hepatocyte stability (human). The settings on record: hepatocytes, read-out: Hepatocyte T1/2 (human). In kind it is in vitro ADME.
Series [15] has as its target CYP2C19 (Homo sapiens, UniProt P33261). Kind of series: CYP inhibition. In kind it is in vitro ADME.
Series [16] has as its target CYP2C9 (Homo sapiens, UniProt P11712). Nature of the series: CYP inhibition. In kind it is in vitro ADME.
In series [17] the target is T3, human ALDH1A3 in A375 cells (Homo sapiens, UniProt P47895).
T3 construct: the cell lines with high endogenous ALDH1A3 activity: MDA-MB-468 (triple-negative breast cancer), A375 (melanoma), and LN229 (glioblastoma); endogenous in cells; host or cells: A375
T3 sequence (P47895 1-512): T2 sequence (P47895 1-512)
Nature of the series: Aldefluor assay in A375 cells. In kind it is cell-based. The settings on record: for Aldefluor activity at 100 nM (in words): A375 cells; for EC50: Aldefluor in A375 cells, read-out: EC50 cellular, human ALDH1A3.
Method: In addition, cells were suspended at a concentration of 100,000 cells per mL. Finally, DMSO was added to at 1% final in all cells to improve kinetics of the assay. For compound titrations, concentrated compound stock was added first to tubes and a uniform Aldefluor buffer containing the cell suspension was added to dilute to final volumes. Cells were analyzed by a BD LSRII for flow cytometry and were sorted using a FACSAria Fusion cell sorter (BD Biosciences) equipped with a 70 micron nozzle. Sample and sort collection tubes were kept at 4°C. […] DAPI was used as a live-dead indicator.

Where [18] appears, read: pH 4.5, aqueous buffer, read-out: Kinetic solubility pH 4.5.
Where [19] appears, read: pH 7.6, aqueous buffer, read-out: Kinetic solubility pH 7.6.
[20] abbreviates: 1 mg/kg IV and 10 mg/kg PO, fasted male CD1 mice.

CYP2C9, sequence (P11712 whole entry): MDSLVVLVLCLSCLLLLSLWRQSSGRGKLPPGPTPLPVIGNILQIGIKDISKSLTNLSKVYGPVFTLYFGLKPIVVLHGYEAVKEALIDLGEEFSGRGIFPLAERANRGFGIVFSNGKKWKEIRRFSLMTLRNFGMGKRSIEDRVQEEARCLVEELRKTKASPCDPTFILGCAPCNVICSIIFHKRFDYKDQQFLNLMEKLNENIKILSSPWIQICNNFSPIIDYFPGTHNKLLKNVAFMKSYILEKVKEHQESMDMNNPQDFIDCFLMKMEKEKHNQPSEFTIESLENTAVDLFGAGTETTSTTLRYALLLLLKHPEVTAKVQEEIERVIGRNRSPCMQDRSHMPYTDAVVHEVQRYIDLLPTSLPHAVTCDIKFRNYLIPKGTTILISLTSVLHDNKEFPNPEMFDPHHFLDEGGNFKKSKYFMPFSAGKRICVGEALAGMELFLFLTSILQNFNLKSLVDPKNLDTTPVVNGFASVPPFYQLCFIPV
CYP2C19, sequence (P33261 whole entry): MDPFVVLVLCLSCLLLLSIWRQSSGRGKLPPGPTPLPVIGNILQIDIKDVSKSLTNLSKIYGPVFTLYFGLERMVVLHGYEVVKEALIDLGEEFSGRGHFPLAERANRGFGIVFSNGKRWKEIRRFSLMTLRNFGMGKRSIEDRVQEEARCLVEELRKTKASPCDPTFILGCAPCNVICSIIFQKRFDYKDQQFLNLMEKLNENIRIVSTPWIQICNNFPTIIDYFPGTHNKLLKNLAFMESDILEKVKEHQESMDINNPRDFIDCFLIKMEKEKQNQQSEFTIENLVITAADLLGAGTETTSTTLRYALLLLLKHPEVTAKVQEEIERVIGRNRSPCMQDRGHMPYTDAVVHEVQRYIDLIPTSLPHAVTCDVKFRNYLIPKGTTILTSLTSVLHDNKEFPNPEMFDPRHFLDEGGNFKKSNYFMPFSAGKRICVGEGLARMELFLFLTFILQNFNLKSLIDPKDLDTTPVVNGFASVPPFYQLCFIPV
CYP2D6, sequence (P10635 whole entry): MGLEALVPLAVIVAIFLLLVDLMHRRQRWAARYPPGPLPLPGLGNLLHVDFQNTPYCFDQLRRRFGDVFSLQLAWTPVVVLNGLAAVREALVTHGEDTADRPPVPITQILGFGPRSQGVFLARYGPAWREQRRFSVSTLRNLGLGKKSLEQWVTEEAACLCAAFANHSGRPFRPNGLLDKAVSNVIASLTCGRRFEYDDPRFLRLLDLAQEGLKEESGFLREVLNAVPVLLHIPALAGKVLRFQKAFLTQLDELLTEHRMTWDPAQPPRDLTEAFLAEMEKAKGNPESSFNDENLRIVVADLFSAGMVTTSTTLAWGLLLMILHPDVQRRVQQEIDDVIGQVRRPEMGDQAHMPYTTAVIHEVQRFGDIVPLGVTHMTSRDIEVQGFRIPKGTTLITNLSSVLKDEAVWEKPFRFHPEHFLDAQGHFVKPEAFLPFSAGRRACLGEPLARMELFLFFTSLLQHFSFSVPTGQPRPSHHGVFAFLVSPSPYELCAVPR
CYP3A4, sequence (P08684 whole entry): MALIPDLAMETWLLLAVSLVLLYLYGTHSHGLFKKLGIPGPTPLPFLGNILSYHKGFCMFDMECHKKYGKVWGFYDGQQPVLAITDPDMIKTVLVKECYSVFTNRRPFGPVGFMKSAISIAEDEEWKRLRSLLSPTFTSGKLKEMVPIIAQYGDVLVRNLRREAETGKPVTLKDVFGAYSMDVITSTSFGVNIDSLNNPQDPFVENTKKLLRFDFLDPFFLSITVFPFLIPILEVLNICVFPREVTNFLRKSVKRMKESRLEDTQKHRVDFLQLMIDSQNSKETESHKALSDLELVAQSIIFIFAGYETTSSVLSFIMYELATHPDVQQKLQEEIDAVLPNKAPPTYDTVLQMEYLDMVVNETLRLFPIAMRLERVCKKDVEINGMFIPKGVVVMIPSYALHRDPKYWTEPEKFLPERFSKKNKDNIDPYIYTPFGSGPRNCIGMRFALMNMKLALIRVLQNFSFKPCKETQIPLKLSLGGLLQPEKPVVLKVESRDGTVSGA
CYP1A2, sequence (P05177 whole entry): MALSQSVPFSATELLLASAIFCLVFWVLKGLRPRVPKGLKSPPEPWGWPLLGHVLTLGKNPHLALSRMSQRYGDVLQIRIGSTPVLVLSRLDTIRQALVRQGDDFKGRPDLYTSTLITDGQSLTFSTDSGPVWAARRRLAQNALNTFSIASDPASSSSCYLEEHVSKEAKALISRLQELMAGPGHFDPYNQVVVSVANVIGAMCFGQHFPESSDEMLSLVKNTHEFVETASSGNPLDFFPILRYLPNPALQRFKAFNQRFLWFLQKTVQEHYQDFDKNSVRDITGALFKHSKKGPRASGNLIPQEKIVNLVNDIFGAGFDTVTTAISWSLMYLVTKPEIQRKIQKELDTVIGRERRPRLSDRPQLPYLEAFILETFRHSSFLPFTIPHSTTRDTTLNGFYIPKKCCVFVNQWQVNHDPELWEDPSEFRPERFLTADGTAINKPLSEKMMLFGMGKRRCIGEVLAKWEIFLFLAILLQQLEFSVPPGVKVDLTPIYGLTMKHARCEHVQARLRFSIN
hERG, sequence (Q12809 whole entry): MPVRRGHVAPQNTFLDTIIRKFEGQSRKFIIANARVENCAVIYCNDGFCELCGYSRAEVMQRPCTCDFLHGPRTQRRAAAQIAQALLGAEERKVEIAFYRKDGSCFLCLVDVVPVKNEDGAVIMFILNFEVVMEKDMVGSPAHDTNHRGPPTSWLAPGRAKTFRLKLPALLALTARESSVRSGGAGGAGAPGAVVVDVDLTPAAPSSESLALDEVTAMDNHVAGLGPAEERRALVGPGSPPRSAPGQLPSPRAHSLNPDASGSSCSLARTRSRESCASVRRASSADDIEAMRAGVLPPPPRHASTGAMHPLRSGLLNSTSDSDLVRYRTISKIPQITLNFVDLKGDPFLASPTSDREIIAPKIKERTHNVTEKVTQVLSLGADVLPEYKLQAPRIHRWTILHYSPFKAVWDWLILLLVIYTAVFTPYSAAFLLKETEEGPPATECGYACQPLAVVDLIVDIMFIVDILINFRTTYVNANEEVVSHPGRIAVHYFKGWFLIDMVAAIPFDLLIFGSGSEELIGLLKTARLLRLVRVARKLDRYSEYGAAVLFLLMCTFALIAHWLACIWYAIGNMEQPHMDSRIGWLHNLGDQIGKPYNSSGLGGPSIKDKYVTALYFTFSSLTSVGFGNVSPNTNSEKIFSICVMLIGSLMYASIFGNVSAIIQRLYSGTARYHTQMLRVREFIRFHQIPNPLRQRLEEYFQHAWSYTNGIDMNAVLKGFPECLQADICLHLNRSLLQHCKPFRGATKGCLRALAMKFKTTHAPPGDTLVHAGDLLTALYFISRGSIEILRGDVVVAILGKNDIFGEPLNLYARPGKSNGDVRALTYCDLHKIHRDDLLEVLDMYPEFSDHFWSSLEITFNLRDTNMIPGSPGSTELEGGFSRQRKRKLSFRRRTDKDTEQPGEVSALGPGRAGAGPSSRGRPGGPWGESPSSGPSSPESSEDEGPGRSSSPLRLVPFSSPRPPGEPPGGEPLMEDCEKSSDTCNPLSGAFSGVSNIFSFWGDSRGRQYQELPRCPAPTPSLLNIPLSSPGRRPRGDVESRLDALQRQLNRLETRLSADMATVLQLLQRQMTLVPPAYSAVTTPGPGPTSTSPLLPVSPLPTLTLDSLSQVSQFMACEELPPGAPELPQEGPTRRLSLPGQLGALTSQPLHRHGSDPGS

The term inhibition denotes the drop in the measured response relative to a control, in per cent. A higher inhibition goes with a response far below the control. The IC50 is the concentration needed to halve the response being measured. Broadly, the solubility (kinetic) is the concentration staying in solution when a stock, usually in DMSO, is diluted into the medium. A word on the EC50: it is the midpoint of the concentration-response curve. On to `CCc1cnccc1C(=O)Nc1cc2c(cc1F)NC(=O)CC2` [MBE1, 3-ethyl-N-(7-fluoro-2-oxo-3,4-dihydro-1H-quinolin-6-yl)pyridine-4-carboxamide], for which, in series [1], the “inhibitory activity against ALDH1A1 (in words)” value is “no inhibition”. Moreover, the inhibition at 10 µM in series [2] was 42%; in series [7] it was 61.3%; in series [12], 8.8%; in series [15] it was 15.8%; in series [16], 13.9%. The Cytotoxicity in [3] was over 100 µM. Besides, the IC50 was over 30000 nM in series [4]; 148 nM in series [11] (dose titration, substrate competition assay, recombinant human ALDH1A3, 4-parameter equation, read-out: huALDH1A3 IC50); 3.67 nM in series [13]. In addition, the solubility (kinetic) in series [5] (setting [18]) and in series [5] (setting [19]) was over 200 µM throughout. Also, in series [6] (1 mg/kg i.v. and 10 mg/kg PO, fasted male CD-1 mice), the Oral bioavailability was 88.3%. Moreover, the half-life in series [6] (male, CD-1, mouse, plasma, po, 10 mg/kg) is 1.37 h; in series [14], over 3.61 h. In series [8], the “MDCK-MDR2 permeability A to B” value is “high”. In addition, the efflux ratio in series [9] worked out at 2.42. For the same compound, the “reduction of atRA formation (in words)” value in series [10] was “potently reduced atRA formation”. Moreover, the confirmatory screening result in [11] (hits of the 494-compound screen) was “true positives”. Besides, the EC50 was determined as 3.67 nM in [13] and 5.1 nM in [17]. In addition, the “Aldefluor activity at 100 nM (in words)” value in [17] was “highest activity”.
Consider `CCc1ccccc1C(=O)Nc1cc2c(cc1F)NC(=O)CC2` [MBE1.5, 2-ethyl-N-(7-fluoro-2-oxo-3,4-dihydro-1H-quinolin-6-yl)benzamide], for which the “inhibitory activity against ALDH1A1 (in words)” value in series [1] is given as “no inhibition”. Also, the inhibition at 10 µM in series [2] stood at 6.3%; in series [7], 0%; in [12], 11.6%; in series [15] it was 0%; in series [16] it was 5.6%. The compound further displayed a Cytotoxicity in [3] of over 100 µM. Moreover, the IC50 in series [4] is over 30000 nM; in series [11] (recombinant activity assay (Table 1), read-out: IC50 molecular, human ALDH1A3), 83 nM; in [13] it was under 1 nM. For the same compound, the values for the kinetic solubility in series [5] (setting [18]) and in [5] (setting [19]) were 34.2 µM (≈ 10.7 µg/mL) and 33.3 µM (≈ 10.4 µg/mL), respectively. Also, the “bioavailability compared with MBE1 (in words)” value in series [6] (setting [20]) is given as “reduced bioavailability”. Besides, in series [6] (setting [20]), the “half-life compared with MBE1 (in words)” value is listed as “improved half-life”. In addition, in series [8], the “MDCK-MDR2 permeability A to B” value is “high”. For the same compound, the efflux ratio in [9] worked out at 0.6. In series [10], the “reduction of atRA formation (in words)” value is listed as “potently reduced atRA formation”. For the same compound, in [11] (varying substrate and cofactor concentrations), the competition mode result is reported as “noncompetitive inhibitor”. Moreover, the values for the EC50 in series [13] and in series [17] were 0.53 nM and 1.9 nM, respectively. Moreover, the half-life in series [14] is over 3.61 h. Also, the “Aldefluor activity at 100 nM (in words)” value in series [17] was “highest activity”.
